What was measured:
Type in all cases: cell-based
[1] = test system: human HTT mRNA, SNP rs362331 C allele, GM09197 fibroblasts; test: Screening of HD molecules in GM09197 fibroblasts, allele-specific HTT mRNA by RT-PCR, C allele; details: 48 hr, C allele, Emin = lowest % HTT observed within compound concentration 0.5 nM to 1000 nM
Protocol: (§1) Molecular Biology Toolkit: • qPCR primer probe sets: • RNA input normalization was assessed utilizing human glyceraldehyde 3-phosphate dehydrogenase (hGAPDH) TaqMan assay (ThermoFisher cat #4351370) or Human Cyclophillin ([…]) TaqMan assay (ThermoFisher cat #4351372) • Total HTT detection was assessed utilizing human Htt TaqMan assay (ThermoFisher cat #4331182) • Allele-specific detection of human HTT expression in HD cells containing the SNP rs362331C/T (Exon 50): for each assay, allele-specific probes to detect the SNP variant contained locked nucleic acid bases to improve allele discrimination, as compared to unmodified DNA probes.
(§2) • qPCR was performed using Agpath ID one-step reverse transcriptase polymerase chain reaction (RT-PCR) reagent
(§3) Screening of HD molecules methods: GM09197 and/or GM04022 fibroblasts were cultured in T175 flasks incubated at 37° C. and 5% CO2. Once confluency was reached, the media was removed, the cells were washed with 1×PBS, and cells were dissociated using TrypLE™ Express Enzyme. Media was added to the enzyme and collected into a 15-mL conical tube and centrifuged at 500×g for 5 minutes to pellet the cells. Media and enzyme were aspirated using a serological pipette. Cells were resuspended in fresh media and counted using a Countess 3 Automated Cell Counter. Cells were plated at a density of 15,000 cells/well in a tissue culture-treated polystyrene 96-well dish and incubated at 37° C. and 5% CO2 overnight. The next day, media was removed using an 8-channel aspirator. 200 μL media/well are added back into the plate. The molecules are formulated to 1 mM and are dispensed using a Multidrop™ Pico 8 Digital Dispenser. After a 48-hour incubation with compounds, media was removed from plates, cells were washed with 1×PBS, and cells were lysed in 40 μL per well guanidinium thiocyanate buffer. RNA was isolated and purified in […] glass fiber column plates using chaotropic salts. Human mtHTT, wtHTT, and GAPDH mRNA were measured via RT-PCR using the ThermoFisher QuantStudio™ 7 Flex System in 384-well format. Results of HTT levels were normalized to GAPDH mRNA levels. Normalized HTT mRNA levels were expressed relative to vehicle-treated samples to assess fold change after molecule treatment.
(§4) Emin for each compound is the lowest % HTT concentration observed within a compound concentration of 0.5 nM to 1000 nM.

[2] = test system: human HTT mRNA, SNP rs362331 C allele, GM04022 fibroblasts; test: Screening of HD molecules in GM04022 fibroblasts, allele-specific HTT mRNA by RT-PCR, C allele; details: Emin = lowest % HTT observed within compound concentration 0.5 nM to 1000 nM
Protocol: as §1, §2
as §3, with “Results of HTT levels were normalized to GAPDH mRNA levels. Normalized HTT mRNA levels were expressed relative to vehicle-treated samples to assess fold change after molecule treatment.” left out

[3] = test system: human HTT mRNA, SNP rs362331 T allele, GM04022 fibroblasts; test: Screening of HD molecules in GM04022 fibroblasts, allele-specific HTT mRNA by RT-PCR, T allele; details: for GM04022 Emin 48 hr T Allele: Emin = lowest % HTT observed within compound concentration 0.5 nM to 1000 nM; for IC50: Homo sapiens, Fibroblast, 48-hour incubation, T allele HTT mRNA normalized to GAPDH, relative to vehicle
Protocol: as §1, §2, §3, §4

[4] = test system: human HTT mRNA, SNP rs362331 T allele, GM09197 fibroblasts; test: Screening of HD molecules in GM09197 fibroblasts, allele-specific HTT mRNA by RT-PCR, T allele; details: for Gm09197 Emin 48 hr T Allele (%): Emin = lowest % HTT observed within compound concentration 0.5 nM to 1000 nM; for IC50: Homo sapiens, Fibroblast, 48-hour incubation, T allele HTT mRNA normalized to GAPDH, relative to vehicle
Protocol: as §1, §2, §3, §4

Row | Structure (SMILES) | GM 09197 E min 48 Hr C Allele (%) [1] | GM 04022Emin 48 hr C Allele [2] | GM04022 Emin 48 hr T Allele [3] | Gm09197 Emin 48 hr T Allele (%) [4] | IC50 [3] [nM] | IC50 [4] [nM]
1 | Cn1cc(NC(=O)c2nc(NC(=O)CCNC(=O)c3cc(NC(=O)c4nccn4C)cn3C)cn2C)cc1C(=O)NCCCC(=O)Nc1cn(C)c(C(=O)NCCC(=O)Nc2cc(C(=O)Nc3cn(C)c(C(=O)NCCC(=O)NCCOCCOCCOCCOCCOCCOCCOCCOCCOCCOCCOCCOCCOCCOCCOCCOc4ccc(NC(=O)c5cc6c(-c7cc(S(C)(=O)=O)ccc7Oc7ccc(F)cc7F)cn(C)c(=O)c6[nH]5)cc4)n3)n(C)c2)n1 [Compound A-2] | A (A>90%) | A (A>90%) | C (C<80%) | C (C<80%) | – | –
2 | CCNC(=O)c1cc2c(-c3cc(S(C)(=O)=O)ccc3Oc3ccc(OCCOCCOCCOCCOCCOCCOCCOCCOCCNC(=O)CCNC(=O)c4nc(NC(=O)c5cc(NC(=O)CCNC(=O)c6nc(NC(=O)CCCNC(=O)c7cc(NC(=O)c8nc(NC(=O)CCNC(=O)c9cc(NC(=O)c%10nccn%10C)cn9C)cn8C)cn7C)cn6C)cn5C)cn4C)cc3F)cn(C)c(=O)c2[nH]1 [Compound A-3] | A (A>90%) | A (A>90%) | C (C<80%) | C (C<80%) | 36 | 38.7
3 | CCS(=O)(=O)Nc1ccc(Oc2ccc(F)cc2F)c(-c2cn(C)c(=O)c3[nH]c(C(=O)Nc4ccc(OCCOCCOCCOCCOCCOCCOCCOCCOCCNC(=O)CCNC(=O)c5nc(NC(=O)c6cc(NC(=O)CCNC(=O)c7nc(NC(=O)CCCNC(=O)c8cc(NC(=O)c9nc(NC(=O)CCNC(=O)c%10cc(NC(=O)c%11nccn%11C)cn%10C)cn9C)cn8C)cn7C)cn6C)cn5C)cc4)cc23)c1 [Compound A-5] | A (A>90%) | A (A>90%) | C (C<80%) | C (C<80%) | 2 | 9.8
4 | Cc1noc(C)c1-c1ccc2c(c1)nc(CCc1ccc(OCCOCCOCCOCCOCCOCCOCCOCCOCCNC(=O)CCNC(=O)c3nc(NC(=O)c4cc(NC(=O)CCNC(=O)c5nc(NC(=O)CCCNC(=O)c6cc(NC(=O)c7nc(NC(=O)CCNC(=O)c8cc(NC(=O)c9nccn9C)cn8C)cn7C)cn6C)cn5C)cn4C)cn3C)c(Cl)c1)n2C[C@H](C)N1CCOCC1 [Compound A-53] | A (A>90%) | – | – | B (B is 90% to 80%) | – | –
5 | Cc1noc(C)c1-c1ccc2c(c1)nc(CCc1ccc(OCCOCCOCCOCCOCCOCCOCCOCCOCCOCCOCCOCCOCCOCCOCCOCCNC(=O)CCNC(=O)c3nc(NC(=O)c4cc(NC(=O)CCNC(=O)c5nc(NC(=O)CCCNC(=O)c6cc(NC(=O)c7nc(NC(=O)CCNC(=O)c8cc(NC(=O)c9nccn9C)cn8C)cn7C)cn6C)cn5C)cn4C)cn3C)c(Cl)c1)n2C[C@H](C)N1CCOCC1 [Compound A-54] | B (B is 90% to 80%) | – | – | B (B is 90% to 80%) | – | –
6 | CCNC(=O)c1cc2c(-c3cc(S(C)(=O)=O)ccc3Oc3ccc(OCCOCCOCCOCCOCCNC(=O)CCNC(=O)c4nc(NC(=O)c5cc(NC(=O)CCNC(=O)c6nc(NC(=O)CCCNC(=O)c7cc(NC(=O)c8nc(NC(=O)CCNC(=O)c9cc(NC(=O)c%10nccn%10C)cn9C)cn8C)cn7C)cn6C)cn5C)cn4C)cc3F)cn(C)c(=O)c2[nH]1 [Compound A-55] | A (A>90%) | – | – | A (A>90%) | – | –
7 | CC(=O)N1c2ccc(-c3ccn(CCOCCOCCOCCOCCOCCOCCOCCOCCOCCOCCOCCOCCOCCOCCOCCNC(=O)CCNC(=O)c4nc(NC(=O)c5cc(NC(=O)CCNC(=O)c6nc(NC(=O)CCCNC(=O)c7cc(NC(=O)c8nc(NC(=O)CCNC(=O)c9cc(NC(=O)c%10nccn%10C)cn9C)cn8C)cn7C)cn6C)cn5C)cn4C)n3)cc2[C@H](Nc2ccc(C#N)cc2)C[C@@H]1C [Compound A-56] | C (C<80%) | – | – | C (C<80%) | – | –
8 | CC(=O)N1c2ccc(-c3ccn(-c4ccc(OCCOCCOCCOCCOCCOCCOCCOCCOCCOCCOCCOCCOCCOCCOCCOCCNC(=O)CCNC(=O)c5nc(NC(=O)c6cc(NC(=O)CCNC(=O)c7nc(NC(=O)CCCNC(=O)c8cc(NC(=O)c9nc(NC(=O)CCNC(=O)c%10cc(NC(=O)c%11nccn%11C)cn%10C)cn9C)cn8C)cn7C)cn6C)cn5C)cc4)n3)cc2[C@H](Nc2ccc(C#N)cc2)C[C@@H]1C [Compound A-58] | B (B is 90% to 80%) | – | – | B (B is 90% to 80%) | – | –
9 | CC(=O)N1c2ccc(-c3ccn(-c4ccc(OCCOCCOCCOCCOCCOCCOCCOCCOCCNC(=O)CCNC(=O)c5nc(NC(=O)c6cc(NC(=O)CCNC(=O)c7nc(NC(=O)CCCNC(=O)c8cc(NC(=O)c9nc(NC(=O)CCNC(=O)c%10cc(NC(=O)c%11nccn%11C)cn%10C)cn9C)cn8C)cn7C)cn6C)cn5C)cc4)n3)cc2[C@H](Nc2ccc(C#N)cc2)C[C@@H]1C [Compound A-59] | B (B is 90% to 80%) | – | – | B (B is 90% to 80%) | – | –
10 | CCNS(=O)(=O)c1ccc(Oc2ccc(OCCOCCOCCOCCOCCOCCOCCOCCOCCOCCOCCOCCOCCOCCOCCOCCNC(=O)CCNC(=O)c3nc(NC(=O)c4cc(NC(=O)CCNC(=O)c5nc(NC(=O)CCCNC(=O)c6cc(NC(=O)c7nc(NC(=O)CCNC(=O)c8cc(NC(=O)c9nccn9C)cn8C)cn7C)cn6C)cn5C)cn4C)cn3C)cc2F)c(-c2cn(C)c(=O)c3[nH]ccc23)c1 [Compound A-68] | A (A>90%) | – | – | C (C<80%) | – | –
11 | CCS(=O)(=O)Nc1ccc(Oc2ccc(F)cc2F)c(-c2cn(C)c(=O)c3[nH]c(C(=O)Nc4ccc(OCCOCCOCCOCCOCCOCCOCCOCCOCCOCCOCCOCCOCCOCCOCCOCCNC(=O)CCNC(=O)c5nc(NC(=O)c6cc(NC(=O)CCNC(=O)c7nc(NC(=O)OCCNC(=O)c8cc(NC(=O)c9nc(NC(=O)CCNC(=O)c%10cc(NC(=O)c%11nccn%11C)cn%10C)cn9C)cn8C)cn7C)cn6C)cn5C)cc4)cc23)c1 [Compound A-72] | B (B is 90% to 80%) | – | – | A (A>90%) | – | –
12 | Cc1sc2c(c1C)C(c1ccc(Cl)cc1)=N[C@@H](CC(=O)Nc1ccc(OCCOCCOCCOCCOCCOCCOCCOCCOCCOCCOCCOCCOCCOCCOCCOCCNC(=O)CCNC(=O)c3nc(NC(=O)c4cc(NC(=O)CCNC(=O)c5nc(NC(=O)OCCNC(=O)c6cc(NC(=O)c7nc(NC(=O)CCNC(=O)c8cc(NC(=O)c9nccn9C)cn8C)cn7C)cn6C)cn5C)cn4C)cn3C)cc1)c1nnc(C)n1-2 [Compound A-73] | A (A>90%) | – | – | A (A>90%) | – | –
13 | CCS(=O)(=O)Nc1ccc(Oc2ccc(F)cc2F)c(-c2cn(C)c(=O)c3[nH]c(C(=O)Nc4ccc(OCCOCCOCCOCCOCCOCCOCCOCCOCCOCCOCCOCCOCCOCCOCCOCCNC(=O)CCNC(=O)c5nc(NC(=O)c6cc(NC(=O)CCNC(=O)c7nc(NC(=O)NCCNC(=O)c8cc(NC(=O)c9nc(NC(=O)CCNC(=O)c%10cc(NC(=O)c%11nccn%11C)cn%10C)cn9C)cn8C)cn7C)cn6C)cn5C)cc4)cc23)c1 [Compound A-74] | B (B is 90% to 80%) | – | – | A (A>90%) | – | –
14 | Cc1sc2c(c1C)C(c1ccc(Cl)cc1)=N[C@@H](CC(=O)Nc1ccc(OCCOCCOCCOCCOCCOCCOCCOCCOCCOCCOCCOCCOCCOCCOCCOCCNC(=O)CCNC(=O)c3nc(NC(=O)c4cc(NC(=O)CCNC(=O)c5nc(NC(=O)NCCNC(=O)c6cc(NC(=O)c7nc(NC(=O)CCNC(=O)c8cc(NC(=O)c9nccn9C)cn8C)cn7C)cn6C)cn5C)cn4C)cn3C)cc1)c1nnc(C)n1-2 [Compound A-75] | A (A>90%) | – | – | A (A>90%) | – | –
